The source of these data is ChEMBL document CHEMBL1123299, “New antiarrhythmic agents. 2,2,5,5-Tetramethyl-3-pyrroline-3-carboxamides and 2,2,5,5-tetramethylpyrrolidine-3-carboxamindes” (J Med Chem, 1986).

SMILES strings stand for the structures.

One may read the LD50 as the dose expected to kill half of the subjects tested.

System in one series: not listed separately
Nature of the series: Acute toxicity determined after intravenal administration in mice. The series is classed as organism-based. The settings on record: mouse, in vivo, iv.
`Cc1cccc(C)c1NC(=O)C1=CC(C)(C)NC1(C)C` gave an LD50 of 6 mg/kg.

Regarding `CCN(CC)C(=O)COc1c(CNCCCNC(=O)C2=CC(C)(C)NC2(C)C)cccc1OC`, the LD50 was found to be 2.1 mg/kg.

In the case of `CCCc1ccc(OCC(=O)NCCCNC(=O)C2=CC(C)(C)NC2(C)C)c(OC)c1`, the LD50 turned out to be 12 mg/kg.

Take `C=CCc1ccc(OC(C)C(=O)NCCCNC(=O)C2=CC(C)(C)NC2(C)C)c(OC)c1` (stereo not given): the LD50 came out at 7.6 mg/kg.

On to `CC1(C)CC(C(=O)NCCCNCc2ccccc2OCc2ccccc2)C(C)(C)N1` (stereo not given), for which the LD50 came to 13 mg/kg.

Consider `Cc1cccc(C)c1OCC(C)NC(=O)C1CC(C)(C)NC1(C)C` (stereo not given), for which the LD50 amounted to 2 mg/kg.

The compound `Cc1cccc(C)c1NC(=O)CNCCCNC(=O)C1=CC(C)(C)NC1(C)C` had an LD50 of 7.4 mg/kg.

The subject of the next series is Rattus norvegicus. Nature of the series: (§1) Acute toxicity in secondary evaluation when administered intravenously (iv) against aconitine-induced arrhythmias in anesthetized rats.
Conditions: not given
The series is classed as functional, organism-based.
The compound `Cc1cccc(C)c1OCC(C)NC(=O)C1CC(C)(C)N([O])C1(C)C` (stereo not given) gave an ED150 of 9.2 mg/kg.

The test system of another series is Rattus norvegicus. In words: Effective dose against aconitine-induced arrhythmia after intravenal administration in anesthetized rats. Type of series: functional.
Conditions: not given
In the case of `Cc1cccc(C)c1NC(=O)C1=CC(C)(C)NC1(C)C`, the ED150 was determined as 2.1 mg/kg.

On to `CCCc1ccc(OCC(=O)NCCCNC(=O)C2=CC(C)(C)NC2(C)C)c(OC)c1`, for which the ED150 was found to be 2.9 mg/kg.

In turn, `C=CCc1ccc(OC(C)C(=O)NCCCNC(=O)C2=CC(C)(C)NC2(C)C)c(OC)c1` (stereo not given) displayed an ED150 of 0.8 mg/kg.

Turning to `CC1(C)CC(C(=O)NCCCNCc2ccccc2OCc2ccccc2)C(C)(C)N1` (stereo not given), the ED150 is 0.52 mg/kg.

Regarding `Cc1cccc(C)c1OCC(C)NC(=O)C1CC(C)(C)NC1(C)C` (stereo not given), the ED150 was determined as 0.39 mg/kg.

`Cc1cccc(C)c1NC(=O)CNCCCNC(=O)C1=CC(C)(C)NC1(C)C` gave an ED150 of 0.37 mg/kg.

System in a further series: not listed separately
The series is described as §1. The series is classed as organism-based. The settings on record: rat, in vivo.
For `CC1(C)C=C(C(=O)NCCCN2C(=O)c3ccccc3C2=O)C(C)(C)N1[O]`, the LD50 was determined as 187 mg/kg.

Another series deals with Rattus norvegicus. Nature of the series: (§2) Acute toxicity in secondary evaluation when administered intravenously (iv) against aconitine-induced arrhythmias in anesthetized rats. The series is classed as functional, organism-based.
Conditions: not given
`Cc1cccc(C)c1OCC(C)NC(=O)C1CC(C)(C)N([O])C1(C)C` (stereo not given) returned an LD50 of 21 mg/kg.

System in the next series: not listed separately
The series is described as §2. The series is classed as organism-based. The settings on record: rat, in vivo.
Consider `CC.Cc1cccc(C)c1NC(=O)CNC(=O)C1CC(C)(C)N(O)C1(C)C` (stereo not given), for which the LD50 is > 200 mg/kg.

System in a further series: not listed separately
In words: Acute toxicity in secondary evaluation when administered intravenously (iv) against aconitine-induced arrhythmias in anesthetized rats..parenthesis indicates 95%CL. Type of series: organism-based. To be noted: rat, in vivo.
With `Cc1cccc(C)c1NC(=O)CNC(=O)C1=CC(C)(C)N([O])C1(C)C`, the LD50 was 136 mg/kg.

Regarding `Cc1cccc(C)c1NC(=O)C(C)NC(=O)C1=CC(C)(C)N([O])C1(C)C` (stereo not given), the LD50 was determined as 165 mg/kg.

Consider `Cc1cccc(C)c1OCC(C)NC(=O)C1=CC(C)(C)N([O])C1(C)C` (stereo not given), for which the LD50 worked out at 54 mg/kg.

The next series relates to Rattus norvegicus. Nature of the series: Acute toxicity in secondary evaluation when administered intravenously (iv) against aconitine-induced arrhythmias in anesthetized rats. Relative potency with respect to quinidine. The series is classed as functional, organism-based.
Conditions: not given
For `Cc1cccc(C)c1OCC(C)NC(=O)C1CC(C)(C)N([O])C1(C)C` (stereo not given), the Relative potency worked out at 1.3.

For another series, the species on record is Rattus norvegicus. Nature of the series: Relative potency with reference to quinidine. The series is classed as functional.
Conditions: not given
The compound `Cc1cccc(C)c1NC(=O)C1=CC(C)(C)NC1(C)C` showed a Relative potency of 5.7.

With `CCCc1ccc(OCC(=O)NCCCNC(=O)C2=CC(C)(C)NC2(C)C)c(OC)c1`, the Relative potency is on record as 4.1.

As for `C=CCc1ccc(OC(C)C(=O)NCCCNC(=O)C2=CC(C)(C)NC2(C)C)c(OC)c1` (stereo not given), the Relative potency was found to be 14.9.

`CC1(C)CC(C(=O)NCCCNCc2ccccc2OCc2ccccc2)C(C)(C)N1` (stereo not given) showed a Relative potency of 22.9.

Regarding `Cc1cccc(C)c1OCC(C)NC(=O)C1CC(C)(C)NC1(C)C` (stereo not given), the Relative potency came to 30.5.

Regarding `Cc1cccc(C)c1NC(=O)CNCCCNC(=O)C1=CC(C)(C)NC1(C)C`, the Relative potency worked out at 32.2.

The test system of another series is Rattus norvegicus. In words: Tested for incidence of arrhythmias in rats after a intravenal administration of 0.5 mg/kg expressed as no. of positive cases out of no. of tested cases (10). The series is classed as functional.
Conditions: not given
As for `Cc1cccc(C)c1OCC(C)NC(=O)C1CC(C)(C)NC1(C)C` (stereo not given), the “No. of positive cases” value was 10.

The subject of another series is Rattus norvegicus. Nature of the series: Tested for incidence of arrhythmias in rats after a intravenal administration of 1 mg/kg expressed as no. of positive cases out of no. of tested cases (10).
Conditions: not given
The series is classed as functional.
Take `Cc1cccc(C)c1NC(=O)C1=CC(C)(C)NC1(C)C`: the “No. of positive cases” value is 7.

As to `CCN(CC)C(=O)COc1c(CNCCCNC(=O)C2=CC(C)(C)NC2(C)C)cccc1OC`, the “No. of positive cases” value was 1.

For `C=CCc1ccc(OC(C)C(=O)NCCCNC(=O)C2=CC(C)(C)NC2(C)C)c(OC)c1` (stereo not given), the “No. of positive cases” value stood at 10.

For `CC1(C)CC(C(=O)NCCCNCc2ccccc2OCc2ccccc2)C(C)(C)N1` (stereo not given), the “No. of positive cases” value was found to be 10.

As to `Cc1cccc(C)c1NC(=O)CNCCCNC(=O)C1=CC(C)(C)NC1(C)C`, the “No. of positive cases” value stood at 10.

Another series has as its system Rattus norvegicus. Nature of the series: Tested for incidence of arrhythmias in rats after a intravenal administration of 4 mg/kg expressed as no. of positive cases out of no. of tested cases (10). Type of series: functional.
Conditions: not given
As for `CCCc1ccc(OCC(=O)NCCCNC(=O)C2=CC(C)(C)NC2(C)C)c(OC)c1`, the “No. of positive cases” value came out at 10.

The next series deals with Rattus norvegicus. In words: Incidence of arrhythmias in rats after a intravenal administration at 4 mg/kg, expressed as no. of positive cases out of no. of tested cases (10). Type of series: functional.
Conditions: not given
Turning to `CC1(C)C=C(C(=O)NCCCN2C(=O)c3ccccc3C2=O)C(C)(C)N1[O]`, the “No. of positive cases” value stood at 0.

With `Cc1cccc(C)c1NC(=O)CNC(=O)C1=CC(C)(C)N([O])C1(C)C`, the “No. of positive cases” value stood at 0.

With `Cc1cccc(C)c1NC(=O)C(C)NC(=O)C1=CC(C)(C)N([O])C1(C)C` (stereo not given), the “No. of positive cases” value is listed as 0.

As for `CC.Cc1cccc(C)c1NC(=O)CNC(=O)C1CC(C)(C)N(O)C1(C)C` (stereo not given), the “No. of positive cases” value is given as 0.

With `Cc1cccc(C)c1OCC(C)NC(=O)C1CC(C)(C)N([O])C1(C)C` (stereo not given), the No. of positive cases is 6.

Consider `Cc1cccc(C)c1OCC(C)NC(=O)C1=CC(C)(C)N([O])C1(C)C` (stereo not given), for which the “No. of positive cases” value was determined as 0.
